What is called DC50 is the midpoint of the concentration-degradation curve. As usually defined, the Dmax is the greatest extent of degradation seen.

This test deals with T1, BRM (Homo sapiens, UniProt P51531).
T1 construct: Western Blot Screen of BRM Degradation in SW1573 Cells; endogenous in cells; host or cells: SW1573 cells
The experiment in a line: BRM degradation (Dmax and DC50) in SW1573 cells, Western blot screen / In-Cell Western screen. The settings on record: overnight (18-20 hours) treatment; for Dmax: read-out: Dmax (%)** (% degraded). In kind it is cell-based. Summed up: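 SW1573 cells were treated with compound for 18–20 h (final 0.1% DMSO). BRM was quantified either by Western blot of RIPA lysates or by fixed-cell In-Cell Western (LI-COR, 800/680 nm), each normalised to alpha-tubulin, giving Dmax and DC50.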
On the technique in general: Immunoblotting shows a protein as a band on a membrane.

T1 sequence (P51531 whole entry): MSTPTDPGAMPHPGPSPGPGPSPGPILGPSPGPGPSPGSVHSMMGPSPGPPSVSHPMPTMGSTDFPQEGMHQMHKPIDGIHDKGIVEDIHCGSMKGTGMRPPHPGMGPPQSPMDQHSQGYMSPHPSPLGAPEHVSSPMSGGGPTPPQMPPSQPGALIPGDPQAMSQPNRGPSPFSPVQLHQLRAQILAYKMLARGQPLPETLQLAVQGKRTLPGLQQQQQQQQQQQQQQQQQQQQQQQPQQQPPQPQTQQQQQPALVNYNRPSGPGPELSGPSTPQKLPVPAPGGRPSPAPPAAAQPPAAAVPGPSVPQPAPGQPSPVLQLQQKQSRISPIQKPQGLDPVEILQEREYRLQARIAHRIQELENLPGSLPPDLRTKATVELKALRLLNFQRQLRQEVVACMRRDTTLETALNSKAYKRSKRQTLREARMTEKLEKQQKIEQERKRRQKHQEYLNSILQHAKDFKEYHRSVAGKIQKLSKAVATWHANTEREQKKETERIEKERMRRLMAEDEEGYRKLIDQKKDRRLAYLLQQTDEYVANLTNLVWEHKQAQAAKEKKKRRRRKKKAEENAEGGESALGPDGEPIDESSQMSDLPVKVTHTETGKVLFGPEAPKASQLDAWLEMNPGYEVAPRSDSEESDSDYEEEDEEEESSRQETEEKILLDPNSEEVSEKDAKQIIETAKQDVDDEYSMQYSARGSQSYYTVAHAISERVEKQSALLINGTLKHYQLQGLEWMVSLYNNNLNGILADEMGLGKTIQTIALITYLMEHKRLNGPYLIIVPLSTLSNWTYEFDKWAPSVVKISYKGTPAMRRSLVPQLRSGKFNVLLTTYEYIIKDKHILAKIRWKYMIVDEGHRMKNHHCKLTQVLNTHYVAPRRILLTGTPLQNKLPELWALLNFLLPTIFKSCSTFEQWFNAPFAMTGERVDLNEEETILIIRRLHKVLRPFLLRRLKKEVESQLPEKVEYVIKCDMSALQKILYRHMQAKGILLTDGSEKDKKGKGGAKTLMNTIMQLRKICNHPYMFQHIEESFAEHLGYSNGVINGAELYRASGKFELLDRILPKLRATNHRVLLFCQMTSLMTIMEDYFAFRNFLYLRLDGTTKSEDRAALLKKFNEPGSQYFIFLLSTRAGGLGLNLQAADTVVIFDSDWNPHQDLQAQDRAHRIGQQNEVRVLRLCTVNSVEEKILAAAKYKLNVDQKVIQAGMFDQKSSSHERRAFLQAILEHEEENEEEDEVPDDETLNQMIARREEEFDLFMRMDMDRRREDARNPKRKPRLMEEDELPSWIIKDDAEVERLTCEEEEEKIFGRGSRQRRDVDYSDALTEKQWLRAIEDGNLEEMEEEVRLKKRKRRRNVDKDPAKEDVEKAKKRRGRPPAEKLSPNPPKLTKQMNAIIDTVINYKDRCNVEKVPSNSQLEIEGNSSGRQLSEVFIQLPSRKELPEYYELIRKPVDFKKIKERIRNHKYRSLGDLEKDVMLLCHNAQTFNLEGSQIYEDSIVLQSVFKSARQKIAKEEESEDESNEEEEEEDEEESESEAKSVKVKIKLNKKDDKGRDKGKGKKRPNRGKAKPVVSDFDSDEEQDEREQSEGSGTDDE

`Cc1ncsc1-c1ccc([C@H](C)NC(=O)[C@@H]2C[C@@H](O)CN2C(=O)[C@@H](c2cc(N3CCC(CN4CCC5(CC4)CC(N4CCC[C@@H](CN6C7CCC6CN(c6cc(-c8ccccc8O)nnc6N)C7)C4)C5)CC3)no2)C(C)C)cc1` [Compound 70, (2S,4R)-1-[(2R)-2-{3-[4-({2-[(3R)-3-({3-[3-amino-6-(2-hydroxyphenyl)pyridazin-4-yl]-3,8-diazabicyclo[3.2.1]octan-8-yl}methyl)piperidin-1-yl]-7-azaspiro[3.5]nonan-7-yl}methyl)piperidin-1-yl]-1,2-oxazol-5-yl}-3-methylbutanoyl]-4-hydroxy-N-[(1S)-1-[4-(4-methyl-1,3-thiazol-5-yl)phenyl]ethyl]pyrrolidine-2-carboxamide]: the half-maximal degradation concentration (DC50) was less than 2.5 nM and the Dmax was more than 75%.
For the compound `Cc1ncsc1-c1ccc([C@H](C)NC(=O)[C@@H]2C[C@@H](O)CN2C(=O)[C@@H](c2cc(N3CCC(CN4CCC5(CC4)CC(N4CCC[C@@](O)(CN6C7CCC6CN(c6cc(-c8ccccc8O)nnc6N)C7)C4)C5)CC3)no2)C(C)C)cc1` [Compound 71, (2S,4R)-1-[(2R)-2-{3-[4-({2-[(3S)-3-({3-[3-amino-6-(2-hydroxyphenyl)pyridazin-4-yl]-3,8-diazabicyclo[3.2.1]octan-8-yl}methyl)-3-hydroxypiperidin-1-yl]-7-azaspiro[3.5]nonan-7-yl}methyl)piperidin-1-yl]-1,2-oxazol-5-yl}-3-methylbutanoyl]-4-hydroxy-N-[(1S)-1-[4-(4-methyl-1,3-thiazol-5-yl)phenyl]ethyl]pyrrolidine-2-carboxamide], the 50% degradation concentration (DC50) was less than 2.5 nM and the Dmax is more than 75%.
With `CC(C)[C@@H](C(=O)N1C[C@H](O)C[C@H]1C(=O)N[C@@H](C)c1ccc(-c2scnc2C#CCOCCOCCOCCOc2cc(N3C4CCC3CN(c3cc(-c5ccccc5O)nnc3N)C4)ccn2)cc1)N1Cc2ccccc2C1=O` [Compound 72, (2S,4R)-N-[(1S)-1-[4-(4-{3-[2-(2-{2-[(4-{3-[3-amino-6-(2-hydroxyphenyl)pyridazin-4-yl]-3,8-diazabicyclo[3.2.1]octan-8-yl}pyridin-2-yl)oxy]ethoxy}ethoxy)ethoxy]prop-1-yn-1-yl}-1,3-thiazol-5-yl)phenyl]ethyl]-4-hydroxy-1-[(2S)-3-methyl-2-(1-oxo-2,3-dihydro-1H-isoindol-2-yl)butanoyl]pyrrolidine-2-carboxamide], the DC50 was not below 30 nM.
On to `Cc1ncsc1-c1ccc([C@H](C)NC(=O)[C@@H]2C[C@@H](O)CN2C(=O)[C@@H](c2cc(N3CCC(CN4CCC5(CC4)CC(N4C[C@H](CN6C7CCC6CN(c6cc(-c8ccccc8O)nnc6N)C7)O[C@H](C)C4)C5)CC3)no2)C(C)C)cc1` [Compound 73, (2S,4R)-1-[(2R)-2-{3-[4-({2-[(2R,6R)-2-({3-[3-amino-6-(2-hydroxyphenyl)pyridazin-4-yl]-3,8-diazabicyclo[3.2.1]octan-8-yl}methyl)-6-methylmorpholin-4-yl]-7-azaspiro[3.5]nonan-7-yl}methyl)piperidin-1-yl]-1,2-oxazol-5-yl}-3-methylbutanoyl]-4-hydroxy-N-[(1S)-1-[4-(4-methyl-1,3-thiazol-5-yl)phenyl]ethyl]pyrrolidine-2-carboxamide], for which the DC50 is less than 2.5 nM and the Dmax is more than 75%.
The corresponding values for `Cc1ncsc1-c1ccc([C@H](C)NC(=O)[C@@H]2C[C@@H](O)CN2C(=O)[C@@H](c2cc(N3CCC(CN4CCC(O[C@H]5C[C@H](N6CCC([C@@H](C)c7cnn(-c8cc(-c9ccccc9O)nnc8N)c7)CC6)C5)CC4)CC3)no2)C(C)C)cc1` [Compound 74, (2S,4R)-4-hydroxy-N-[(1S)-1-[4-(4-methyl-1,3-thiazol-5-yl)phenyl]ethyl]-1-[(2R)-3-methyl-2-{3-[4-({4-[(1r,3r)-3-{4-[(1R)-1-{1-[3-amino-6-(2-hydroxyphenyl)pyridazin-4-yl]-1H-pyrazol-4-yl}ethyl]piperidin-- yl}cyclobutoxy]piperidin-1-yl}methyl)piperidin-1-yl]-1,2-oxazol-5-yl}butanoyl]pyrrolidine-2-carboxamide] are less than 2.5 nM and more than 75%.
The corresponding values for `Cc1ncsc1-c1ccc([C@H](C)NC(=O)[C@@H]2C[C@@H](O)CN2C(=O)[C@@H](c2cc(N3CCC(CN4CCC(O[C@H]5C[C@H](N6CCC([C@H](C)c7cnn(-c8cc(-c9ccccc9O)nnc8N)c7)CC6)C5)CC4)CC3)no2)C(C)C)cc1` [Compound 75, (2S,4R)-4-hydroxy-N-[(1S)-1-[4-(4-methyl-1,3-thiazol-5-yl)phenyl]ethyl]-1-[(2R)-3-methyl-2-{3-[4-({4-[(1r,3r)-3-{4-[(1S)-1-{1-[3-amino-6-(2-hydroxyphenyl)pyridazin-4-yl]-1H-pyrazol-4-yl}ethyl]piperidin-1-yl}cyclobutoxy]piperidin-1-yl}methyl)piperidin-1-yl]-1,2-oxazol-5-yl}butanoyl]pyrrolidine-2-carboxamide] are less than 2.5 nM and more than 75%.
Consider `Cc1ncsc1-c1ccc([C@H](C)NC(=O)[C@@H]2C[C@@H](O)CN2C(=O)[C@@H](c2cc(N3CCC(CN4CCC(O[C@H]5C[C@H](C(=O)N6CCC(N7C8CCC7CN(c7cc(-c9ccccc9O)nnc7N)C8)CC6)C5)CC4)CC3)no2)C(C)C)cc1` [Compound 76, (2S,4R)-4-hydroxy-N-[(1S)-1-[4-(4-methyl-1,3-thiazol-5-yl)phenyl]ethyl]-1-[(2R)-3-methyl-2-{3-[4-({4-[(1r,3r)-3-(4-{3-[3-amino-6-(2-hydroxyphenyl)pyridazin-4-yl]-3,8-diazabicyclo[3.2.1]octan-8-yl}piperidine-1-carbonyl)cyclobutoxy]piperidin-1-yl}methyl)piperidin-1-yl]-1,2-oxazol-5-yl}butanoyl]pyrrolidine-2-carboxamide], for which the 50% degradation concentration (DC50) fell in the range of 2.5 to 10 nM and the maximal degradation (Dmax) was more than 75%.
Regarding `Cc1ncsc1-c1ccc([C@H](C)NC(=O)[C@@H]2C[C@@H](O)CN2C(=O)[C@@H](c2cc(N3CCC(CN4CCC(O[C@H]5C[C@H](N6CCC(O[C@H]7CCN(c8cc(-c9ccccc9O)nnc8N)C7)CC6)C5)CC4)CC3)no2)C(C)C)cc1` [Compound 77, (2S,4R)-4-hydroxy-N-[(1S)-1-[4-(4-methyl-1,3-thiazol-5-yl)phenyl]ethyl]-1-[(2R)-3-methyl-2-{3-[4-({4-[(1r,3r)-3-(4-{[(3S)-1-[3-amino-6-(2-hydroxyphenyl)pyridazin-4-yl]pyrrolidin-3-yl]oxy}piperidin-1-yl)cyclobutoxy]piperidin-1-yl}methyl)piperidin-1-yl]-1,2-oxazol-5-yl}butanoyl]pyrrolidine-2-carboxamide], the DC50 was less than 2.5 nM and the Dmax is more than 75%.
Regarding `CC(C)[C@@H](C(=O)N1C[C@H](O)C[C@H]1C(=O)N[C@@H](C)c1ccc(C#N)cc1)c1cc(N2CCC(CN3CCC(O[C@H]4C[C@H](N5CCC(C(C)n6cc(C#Cc7cc(-c8ccccc8O)nnc7N)cn6)CC5)C4)CC3)CC2)no1` (stereo partly drawn) [Compound 78, (2S,4R)-N-[(1S)-1-(4-cyanophenyl)ethyl]-4-hydroxy-1-[(2R)-3-methyl-2-{3-[4-({4-[(1r,3r)-3-{4-[1-(4-{2-[3-amino-6-(2-hydroxyphenyl)pyridazin-4-yl]ethynyl}-1H-pyrazol-1-yl)ethyl]piperidin-1-yl}cyclobutoxy]piperidin-1-yl}methyl)piperidin-1-yl]-1,2-oxazol-5-yl}butanoyl]pyrrolidine-2-carboxamide], the DC50 was in the range of 2.5 to 10 nM and the Dmax was more than 75%.
`Cc1ncsc1-c1ccc([C@H](C)NC(=O)[C@@H]2C[C@@H](O)CN2C(=O)[C@H](c2cc(N3CCC(O[C@H]4CC[C@@H](Oc5cc(N6C7CCC6CN(c6cc(-c8ccccc8O)nnc6N)C7)ccn5)CC4)CC3)no2)C(C)C)cc1` [Compound 79, (2S,4R)-4-hydroxy-N-[(1S)-1-[4-(4-methyl-1,3-thiazol-5-yl)phenyl]ethyl]-1-[(2S)-3-methyl-2-[3-(4-{[(1s,4s)-4-[(4-{3-[3-amino-6-(2-hydroxyphenyl)pyridazin-4-yl]-3,8-diazabicyclo[3.2.1]octan-8-yl}pyridin-2-yl)oxy]cyclohexyl]oxy}piperidin-1-yl)-1,2-oxazol-5-yl]butanoyl]pyrrolidine-2-carboxamide] displayed a DC50 not below 30 nM.
For the compound `Cc1ncsc1-c1ccc([C@H](C)NC(=O)[C@@H]2C[C@@H](O)CN2C(=O)[C@@H](c2cc(N3CCC(O[C@H]4CC[C@@H](Oc5cc(N6C7CCC6CN(c6cc(-c8ccccc8O)nnc6N)C7)ccn5)CC4)CC3)no2)C(C)C)cc1` [Compound 80, (2S,4R)-4-hydroxy-N-[(1S)-1-[4-(4-methyl-1,3-thiazol-5-yl)phenyl]ethyl]-1-[(2R)-3-methyl-2-[3-(4-{[(1s,4s)-4-[(4-{3-[3-amino-6-(2-hydroxyphenyl)pyridazin-4-yl]-3,8-diazabicyclo[3.2.1]octan-8-yl}pyridin-2-yl)oxy]cyclohexyl]oxy}piperidin-1-yl)-1,2-oxazol-5-yl]butanoyl]pyrrolidine-2-carboxamide], the 50% degradation concentration (DC50) was less than 2.5 nM and the Dmax is more than 75%.
Regarding `Cc1ncsc1-c1ccc([C@H](C)NC(=O)[C@@H]2C[C@@H](O)CN2C(=O)[C@@H](c2cc(OCCN3CCC(O[C@H]4C[C@H](OC(=O)N5CCN(c6cc(-c7ccccc7O)nnc6N)CC5)C4)CC3)no2)C(C)C)cc1` [Compound 81, (1r,3r)-3-({1-[2-({5-[(2R)-1-[(2S,4R)-4-hydroxy-2-{[(1S)-1-[4-(4-methyl-1,3-thiazol-5-yl)phenyl]ethyl]carbamoyl}pyrrolidin-1-yl]-3-methyl-1-oxobutan-2-yl]-1,2-oxazol-3-yl}oxy)ethyl]piperidin-4-yl}oxy)cyclobutyl 4-[3-amino-6-(2-hydroxyphenyl)pyridazin-4-yl]piperazine-1-carboxylate], the DC50 was less than 2.5 nM and the Dmax is more than 75%.
